Patent US6737383B1, “Herbicidal oxadiazolidines” (priority 1999, dated 2004)

Key:
blackgrass = assay: Test B pre/postemergence blackgrass; format: in vivo, Alopecurus myosuroides
Procedure, shortened: (§1)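 Test chemicals in a non-phytotoxic solvent mixture with surfactant were sprayed preemergence onto planted seeds and postemergence onto plants 2 to 18 cm tall (1- to 4-leaf stage). After twelve to sixteen days in a greenhouse, injury was visually rated against untreated controls from 0 (no effect) to 10 (complete control).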

corn = assay: Test B pre/postemergence corn; format: in vivo, Zea mays
Procedure, shortened: as §1

soybean = assay: Test B pre/postemergence soybean; format: in vivo, Glycine max
Procedure, shortened: as §1

morningglory = assay: Test B pre/postemergence morningglory; format: in vivo, Ipomoea hederacea
Procedure, shortened: as §1

velvetleaf = assay: Test B pre/postemergence velvetleaf; format: in vivo, Abutilon theophrasti
Procedure, shortened: as §1

bamyardgrass = assay: Test B flood test barnyardgrass; format: in vivo, Echinochloa crus-galli
Procedure, shortened: (§2)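 Flood test on plants grown to the 2-leaf stage; treated plants kept in greenhouse twelve to sixteen days, then visually rated against controls on a 0 (no effect) to 10 (complete control) scale.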

purple nutsedge = assay: Test B pre/postemergence purple nutsedge; format: in vivo, Cyperus rotundus
Procedure, shortened: as §1

pigweed = assay: Test B pre/postemergence pigweed; format: in vivo, Amaranthus retroflexus
Procedure, shortened: as §1

sugar beet = assay: Test B pre/postemergence sugar beet; format: in vivo, Beta vulgaris
Procedure, shortened: as §1

wild oat = assay: Test B pre/postemergence wild oat; format: in vivo, Avena fatua
Procedure, shortened: as §1

bedstraw = assay: Test B pre/postemergence bedstraw; format: in vivo, Galium aparine
Procedure, shortened: as §1

cocklebur = assay: Test B pre/postemergence cocklebur; format: in vivo, Xanthium strumarium
Procedure, shortened: as §1

smallflower flatsedge = assay: Test B flood test smallflower flatsedge; format: in vivo, Cyperus difformis
Procedure, shortened: as §2

surinam grass = assay: Test B pre/postemergence surinam grass; format: in vivo, Brachiaria decumbens
Procedure, shortened: as §1

rice = assay: Test B flood test rice; format: in vivo, Oryza sativa
Procedure, shortened: as §2

rape = assay: Test B pre/postemergence rape; format: in vivo, Brassica napus
Procedure, shortened: as §1

[1] = Preemergence, Rate 62 g/ha, scale of 0 to 10 where 0 is no effect and 10 is complete control
[2] = Preemergence, Rate 250 g/ha, scale of 0 to 10 where 0 is no effect and 10 is complete control
[3] = Preemergence, Rate 500 g/ha, scale of 0 to 10 where 0 is no effect and 10 is complete control
[4] = Rate 62 g/ha, Postemergence, scale of 0 to 10 where 0 is no effect and 10 is complete control
[5] = Rate 125 g/ha, Postemergence, scale 0 to 10
[6] = Rate 125 g/ha, Preemergence, scale of 0 to 10 where 0 is no effect and 10 is complete control
[7] = Rate 500 g/ha, Postemergence, scale 0 to 10, 0 no effect, 10 complete control
[8] = Rate 62 g/ha, headed Pre-emergence (flood test species), scale 0 to 10 (0 no effect, 10 complete control)
[9] = Rate 125 g/ha, Pre-emergence, flood test species, scale 0 to 10 where 0 is no effect and 10 is complete control
[10] = Rate 250 g/ha, Pre-emergence, flood-test species, scale 0 to 10, 0 is no effect, 10 is complete control
[11] = Rate 500 g/ha, Pre-emergence, flood test species, scale 0 to 10 (0 no effect, 10 complete control)

Cc1cc(C)c(-n2c(=O)on(C(=O)N(c3ccc(F)cc3)C(C)C)c2=O)c(Br)c1 [Compound 224]
Blackgrass plant response rating (blackgrass; [1]): 2 | Blackgrass plant response rating (blackgrass; [2]): 3 | Plant response rating, Blackgrass (blackgrass; [3]): 5 | Blackgrass plant response rating (blackgrass; [4]): 0 | Blackgrass plant response rating (blackgrass; [5]): 0 | Blackgrass plant response rating (blackgrass; [6]): 2 | Plant response rating (0 to 10; 0 is no effect, 10 is complete control), Blackgrass (blackgrass; Rate 250 g/ha, Postemergence): 3 | Blackgrass plant response rating (blackgrass; [7]): 4 | Corn plant response rating (corn; [1]): 0 | Corn plant response rating (corn; [2]): 0 | Plant response rating, Corn (corn; [3]): 0 | Corn plant response rating (corn; [4]): 0 | Corn plant response rating (corn; [5]): 0 | Corn plant response rating (corn; [6]): 0 | Plant response rating (0 to 10; 0 is no effect, 10 is complete control), Corn (corn; Rate 250 g/ha, Postemergence): 0 | Corn plant response rating (corn; [7]): 0 | Soybean plant response rating (soybean; [1]): 0 | Soybean plant response rating (soybean; [2]): 0 | Plant response rating, Soybean (soybean; [3]): 0 | Soybean plant response rating (soybean; [4]): 2 | Soybean plant response rating (soybean; [5]): 3 | Soybean plant response rating (soybean; [6]): 0 | Plant response rating (0 to 10; 0 is no effect, 10 is complete control), Soybean (soybean; Rate 250 g/ha, Postemergence): 4 | Soybean plant response rating (soybean; [7]): 2 | Morningglory plant response rating (morningglory; [1]): 0 | Morningglory plant response rating (morningglory; [2]): 0 | Plant response rating, Morningglory (morningglory; [3]): 0 | Morningglory plant response rating (morningglory; [4]): 2 | Morningglory plant response rating (morningglory; [5]): 2 | Morningglory plant response rating (morningglory; [6]): 0 | Plant response rating (0 to 10; 0 is no effect, 10 is complete control), Morningglory (morningglory; Rate 250 g/ha, Postemergence): 5 | Morningglory plant response rating (morningglory; [7]): 6 | Velvetleaf plant response rating (velvetleaf; [1]): 0 | Velvetleaf plant response rating (velvetleaf; [2]): 0 | Plant response rating, Velvetleaf (velvetleaf; [3]): 0 | Velvetleaf plant response rating (velvetleaf; [4]): 0 | Velvetleaf plant response rating (velvetleaf; [5]): 0 | Velvetleaf plant response rating (velvetleaf; [6]): 0 | Plant response rating (0 to 10; 0 is no effect, 10 is complete control), Velvetleaf (velvetleaf; Rate 250 g/ha, Postemergence): 0 | Velvetleaf plant response rating (velvetleaf; [7]): 4 | Barnyardgrass plant response rating (bamyardgrass; [8]): 0 | Barnyardgrass plant response rating (bamyardgrass; [9]): 0 | Barnyardgrass plant response rating (bamyardgrass; [10]): 0 | Barnyardgrass plant response rating (bamyardgrass; [11]): 0 | Nutsedge plant response rating (purple nutsedge; [1]): 0 | Nutsedge plant response rating (purple nutsedge; [4]): 0 | Nutsedge plant response rating (purple nutsedge; [5]): 0 | Plant response rating (0 to 10; 0 is no effect, 10 is complete control), Nutsedge (purple nutsedge; Rate 250 g/ha, Postemergence): 0 | Nutsedge plant response rating (purple nutsedge; [7]): 0 | Redroot pigweed plant response rating (pigweed; [1]): 0 | Redroot pigweed plant response rating (pigweed; [2]): 0 | Plant response rating, Redroot pigweed (pigweed; [3]): 4 | Redroot pigweed plant response rating (pigweed; [4]): 0 | Redroot pigweed plant response rating (pigweed; [5]): 2 | Redroot pigweed plant response rating (pigweed; [6]): 0 | Plant response rating (0 to 10; 0 is no effect, 10 is complete control), Redroot pigweed (pigweed; Rate 250 g/ha, Postemergence): 4 | Redroot pigweed plant response rating (pigweed; [7]): 7 | Sugarbeets plant response rating (sugar beet; [1]): 0 | Sugarbeets plant response rating (sugar beet; [2]): 0 | Plant response rating, Sugarbeets (sugar beet; [3]): 0 | Sugarbeets plant response rating (sugar beet; [4]): 1 | Sugarbeets plant response rating (sugar beet; [5]): 2 | Sugarbeets plant response rating (sugar beet; [6]): 0 | Plant response rating (0 to 10; 0 is no effect, 10 is complete control), Sugarbeets (sugar beet; Rate 250 g/ha, Postemergence): 4 | Sugarbeets plant response rating (sugar beet; [7]): 4 | Wild oats plant response rating (wild oat; [1]): 0 | Wild oats plant response rating (wild oat; [2]): 0 | Plant response rating, Wild oats (wild oat; [3]): 2 | Wild oats plant response rating (wild oat; [4]): 0 | Wild oats plant response rating (wild oat; [5]): 0 | Wild oats plant response rating (wild oat; [6]): 0 | Plant response rating (0 to 10; 0 is no effect, 10 is complete control), Wild oats (wild oat; Rate 250 g/ha, Postemergence): 0 | Wild oats plant response rating (wild oat; [7]): 0 | Bedstraw plant response rating (bedstraw; [1]): 0 | Bedstraw plant response rating (bedstraw; [2]): 0 | Plant response rating, Bedstraw (bedstraw; [3]): 0 | Bedstraw plant response rating (bedstraw; [4]): 3 | Bedstraw plant response rating (bedstraw; [5]): 3 | Bedstraw plant response rating (bedstraw; [6]): 0 | Plant response rating (0 to 10; 0 is no effect, 10 is complete control), Bedstraw (bedstraw; Rate 250 g/ha, Postemergence): 4 | Bedstraw plant response rating (bedstraw; [7]): 4 | Cocklebur plant response rating (cocklebur; [1]): 0 | Cocklebur plant response rating (cocklebur; [2]): 0 | Plant response rating, Cocklebur (cocklebur; [3]): 0 | Cocklebur plant response rating (cocklebur; [4]): 0 | Cocklebur plant response rating (cocklebur; [5]): 0 | Cocklebur plant response rating (cocklebur; [6]): 0 | Plant response rating (0 to 10; 0 is no effect, 10 is complete control), Cocklebur (cocklebur; Rate 250 g/ha, Postemergence): 0 | Cocklebur plant response rating (cocklebur; [7]): 1 | S. Flatsedge plant response rating (smallflower flatsedge; [8]): 0 | S. Flatsedge plant response rating (smallflower flatsedge; [9]): 0 | S. Flatsedge plant response rating (smallflower flatsedge; [10]): 0 | S. Flatsedge plant response rating (smallflower flatsedge; [11]): 0 | B. signalgrass plant response rating (surinam grass; [1]): 0 | B. signalgrass plant response rating (surinam grass; Preemergence, Rate 250 g/ha, scale 0 to 10, 0 is no effect, 10 is complete control): 4 | Plant response rating, B. signalgrass (surinam grass; [3]): 4 | B. signalgrass plant response rating (surinam grass; [4]): 0 | B. signalgrass plant response rating (surinam grass; Rate 125 g/ha, Postemergence, scale 0 (no effect) to 10 (complete control)): 0 | B. signalgrass plant response rating (surinam grass; [6]): 3 | Plant response rating (0 to 10; 0 is no effect, 10 is complete control), B. signalgrass (surinam grass; Rate 250 g/ha, Postemergence): 0 | B. signalgrass plant response rating (surinam grass; [7]): 0 | Rice plant response rating (rice; [8]): 0 | Rice plant response rating (rice; [9]): 0 | Rice plant response rating (rice; [10]): 0 | Rice plant response rating (rice; [11]): 0 | Rape plant response rating (rape; [1]): 0 | Rape plant response rating (rape; [2]): 0 | Plant response rating, Rape (rape; [3]): 0 | Rape plant response rating (rape; [4]): 0 | Rape plant response rating (rape; [5]): 0 | Rape plant response rating (rape; [6]): 0 | Plant response rating (0 to 10; 0 is no effect, 10 is complete control), Rape (rape; Rate 250 g/ha, Postemergence): 0 | Rape plant response rating (rape; [7]): 0
